Source: BindingDB's records for doi:10.7270/Q24J0CNF (Chevron Chemical, 1990)

Biological target: Glutamine synthetase (Homo sapiens, UniProt P15104)
Test: Enzyme Assay
Settings: pH 7
Protocol: The enzyme was assayed at pH 7.0 using the pyruvate kinase/lactate dehydroenase coupling system.

Sequence of Glutamine synthetase (P15104 whole entry): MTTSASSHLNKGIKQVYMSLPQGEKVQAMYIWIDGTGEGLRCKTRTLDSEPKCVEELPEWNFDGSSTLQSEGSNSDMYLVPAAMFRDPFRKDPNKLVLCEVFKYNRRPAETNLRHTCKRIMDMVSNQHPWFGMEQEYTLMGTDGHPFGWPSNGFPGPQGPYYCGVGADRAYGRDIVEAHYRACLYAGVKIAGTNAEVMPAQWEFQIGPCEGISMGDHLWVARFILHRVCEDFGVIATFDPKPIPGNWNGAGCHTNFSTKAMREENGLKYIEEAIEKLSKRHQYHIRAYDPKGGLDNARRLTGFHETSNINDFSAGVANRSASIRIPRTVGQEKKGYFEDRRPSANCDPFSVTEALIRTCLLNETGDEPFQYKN

Compound | Ki [nM]
CP(=O)(O)CCC(N)C(=O)O (stereo not drawn) [Phosphinothricin analog, 1 (L Isomer)] | 0.22
CC(CC(N)C(=O)O)P(C)(=O)O (configuration not stated) [Phosphinothricin analog, 2 (D,L mixture)] | 140
